Several values for one entry are separate records, joined by “and”; a condition that tells them apart may be missing. Equal values may be shown once. Read-outs that look alike come from different tables or passages of the source.
How the values were obtained:
[1] = biological target: T1, PBRM1-BD2 (Homo sapiens (Human), UniProt Q86U86); assay: biochemical; assay type: binding; conditions: for PBRM1-BD2 ΔTm: DSF, 10 μM protein, 100 μM inhibitor, vs apoprotein
Description: DSF measures protein unfolding by monitoring the fluorescence of the SYPRO Orange dye as a function of temperature; positive thermal shifts indicate ligand binding induced stabilization of the protein.
(§1) Differential Scanning Fluorimetry (DSF). Bromodomain DSF Tm assays were performed using an Mx3005P (Stratagene) PCR detection system and low profile 96-well PCR plates (UltraFlux, Flat Top, SSI 3400-00S). […] The temperature was raised by 1° C./min from 25-95° C., and fluorescence readings were taken at each interval. Melting curves were analyzed using our online interactive fitting tool for thermofluor experiments (https://dsf-analysis.herokuapp.com/DSF-analysis) and plotted using GraphPad Prism.

[2] = biological target: SMARCA2 (Homo sapiens (Human), UniProt P51531); assay: DSF selectivity profiling; assay type: binding
Chain of SMARCA2 (P51531 1378-1506): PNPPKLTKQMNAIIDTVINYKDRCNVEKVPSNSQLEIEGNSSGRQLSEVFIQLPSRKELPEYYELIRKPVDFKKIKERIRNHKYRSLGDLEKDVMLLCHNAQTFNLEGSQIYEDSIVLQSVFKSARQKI
Description: as §1

[3] = biological target: BRD4-BD1 (Homo sapiens (Human), UniProt O60885); assay: DSF selectivity profiling; assay type: binding
Description: as §1

[4] = biological target: SMARCA4 (Homo sapiens (Human), UniProt P51532); assay: DSF selectivity profiling; assay type: binding
Chain of SMARCA4 (P51532 1453-1564): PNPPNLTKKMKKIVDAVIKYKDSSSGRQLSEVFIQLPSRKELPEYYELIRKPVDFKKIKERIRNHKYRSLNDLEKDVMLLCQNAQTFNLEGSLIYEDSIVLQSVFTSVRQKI
Description: as §1

[5] = biological target: PBRM1-BD1 (Homo sapiens (Human), UniProt Q86U86); assay: DSF selectivity profiling; assay type: binding
Chain of PBRM1-BD1 (Q86U86 41-151): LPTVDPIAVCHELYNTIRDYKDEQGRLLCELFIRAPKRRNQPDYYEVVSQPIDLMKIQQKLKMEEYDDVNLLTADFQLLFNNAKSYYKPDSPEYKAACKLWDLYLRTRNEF
Description: as §1

[6] = biological target: BRD3-BD2 (Homo sapiens (Human), UniProt Q15059); assay: DSF selectivity profiling; assay type: binding
Chain of BRD3-BD2 (Q15059 306-415): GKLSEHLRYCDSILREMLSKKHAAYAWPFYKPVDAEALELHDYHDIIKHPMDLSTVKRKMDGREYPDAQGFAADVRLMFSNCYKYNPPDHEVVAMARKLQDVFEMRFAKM
Description: as §1

[7] = biological target: TRIM33A (Homo sapiens (Human), UniProt Q9UPN9); assay: DSF selectivity profiling; assay type: binding
Chain of TRIM33A (Q9UPN9 957-1080): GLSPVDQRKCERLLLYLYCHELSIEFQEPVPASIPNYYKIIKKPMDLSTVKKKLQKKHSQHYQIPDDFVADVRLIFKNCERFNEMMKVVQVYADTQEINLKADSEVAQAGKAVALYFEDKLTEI
Description: as §1

[8] = biological target: PCAF (Homo sapiens (Human), UniProt Q92831); assay: DSF selectivity profiling; assay type: binding
Chain of PCAF (Q92831 723-827): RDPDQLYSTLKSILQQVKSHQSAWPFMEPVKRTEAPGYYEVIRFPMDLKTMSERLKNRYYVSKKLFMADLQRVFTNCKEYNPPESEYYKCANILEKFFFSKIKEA
Description: as §1

[9] = biological target: ASH1L (Homo sapiens (Human), UniProt Q9NR48); assay: DSF selectivity profiling; assay type: binding
Description: as §1

[10] = biological target: CREBBP (Homo sapiens (Human), UniProt Q92793); assay: DSF selectivity profiling; assay type: binding
Chain of CREBBP (Q92793 1085-1192): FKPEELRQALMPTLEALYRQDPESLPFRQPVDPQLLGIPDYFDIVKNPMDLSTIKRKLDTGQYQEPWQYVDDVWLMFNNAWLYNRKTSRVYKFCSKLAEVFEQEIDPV
Description: as §1

[11] = biological target: PBRM1-BD4 (Homo sapiens (Human), UniProt Q86U86); assay: DSF selectivity profiling; assay type: binding
Chain of PBRM1-BD4 (Q86U86 518-625): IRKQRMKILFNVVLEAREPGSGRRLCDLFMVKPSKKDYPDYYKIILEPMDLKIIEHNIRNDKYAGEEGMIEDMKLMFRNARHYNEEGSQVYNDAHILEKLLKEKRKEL
Description: as §1

[12] = biological target: p300 (Homo sapiens (Human), UniProt Q09472); assay: DSF selectivity profiling; assay type: binding
Chain of p300 (Q09472 1049-1156): as the sequence (Q92793 1085-1192) above, with N47S, V73I, F93Y, A98S counted along it
Description: as §1

[13] = biological target: PBRM1-BD3 (Homo sapiens (Human), UniProt Q86U86); assay: DSF selectivity profiling; assay type: binding
Chain of PBRM1-BD3 (Q86U86 381-487): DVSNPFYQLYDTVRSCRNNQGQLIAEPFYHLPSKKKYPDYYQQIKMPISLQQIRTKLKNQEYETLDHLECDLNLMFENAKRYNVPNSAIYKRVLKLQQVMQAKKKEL
Description: as §1

[14] = biological target: CECR2 (Homo sapiens (Human), UniProt Q9BXF3); assay: DSF selectivity profiling; assay type: binding
Chain of CECR2 (Q9BXF3 434-538): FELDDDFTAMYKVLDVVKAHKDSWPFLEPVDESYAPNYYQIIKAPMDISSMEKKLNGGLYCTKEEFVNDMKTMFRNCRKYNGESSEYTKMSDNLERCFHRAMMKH
Description: as §1

[15] = biological target: BRD7 (Homo sapiens (Human), UniProt Q9NPI1); assay: DSF selectivity profiling; assay type: binding
Chain of BRD7 (Q9NPI1 131-235): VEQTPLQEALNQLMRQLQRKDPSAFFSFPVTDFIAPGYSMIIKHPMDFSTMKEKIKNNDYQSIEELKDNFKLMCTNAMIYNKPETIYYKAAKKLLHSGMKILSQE
Description: as §1

[16] = biological target: BRD2-BD2 (Homo sapiens (Human), UniProt P25440); assay: DSF selectivity profiling; assay type: binding
Chain of BRD2-BD2 (P25440 344-453): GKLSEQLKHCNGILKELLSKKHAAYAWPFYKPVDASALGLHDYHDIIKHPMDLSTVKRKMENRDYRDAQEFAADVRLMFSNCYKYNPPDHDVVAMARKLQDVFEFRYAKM
Description: as §1

[17] = biological target: PBRM1-BD6 (Homo sapiens (Human), UniProt Q86U86); assay: DSF selectivity profiling; assay type: binding
Chain of PBRM1-BD6 (Q86U86 769-879): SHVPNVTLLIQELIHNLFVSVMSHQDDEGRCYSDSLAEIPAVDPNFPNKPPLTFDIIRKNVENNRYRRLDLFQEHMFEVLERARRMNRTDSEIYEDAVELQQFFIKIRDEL
Description: as §1

[18] = biological target: BRD3-BD1 (Homo sapiens (Human), UniProt Q15059); assay: DSF selectivity profiling; assay type: binding
Chain of BRD3-BD1 (Q15059 34-140): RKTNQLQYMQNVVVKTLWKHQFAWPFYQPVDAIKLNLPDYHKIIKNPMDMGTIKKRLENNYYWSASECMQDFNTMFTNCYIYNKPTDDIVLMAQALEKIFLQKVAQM
Description: as §1

[19] = biological target: BRDT-BD1 (Homo sapiens (Human), UniProt Q58F21); assay: DSF selectivity profiling; assay type: binding
Description: as §1

[20] = biological target: BRD4-BD2 (Homo sapiens (Human), UniProt O60885); assay: DSF selectivity profiling; assay type: binding
Description: as §1

[21] = biological target: T2, PBRM1-BD5 (Homo sapiens (Human), UniProt Q86U86); conditions: DSF
T2 sequence (Q86U86 653-763): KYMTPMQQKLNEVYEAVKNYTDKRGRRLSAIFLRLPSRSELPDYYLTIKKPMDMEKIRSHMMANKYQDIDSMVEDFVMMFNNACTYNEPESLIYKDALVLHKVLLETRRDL

[22] = biological target: T1, PBRM1-BD2; assay: biochemical; assay type: binding
Description: Protein-detected NMR-based fragment screening has the advantage of providing information about both binding affinity and the amino acid residues involved in binding.
NMR spectroscopy. Automated NMR data collection was performed on ^15N-labeled PBRM1-BD2 (50 μM) by using ^1H,^15N SOFAST-HMQC experiments. […] The total time for screening 85 or 82 samples each containing 12 fragments or DMSO by ^1H,^15N SOFAST-HMQC was 46 h (˜32 min/sample). […] All NMR data were processed using NMRPipe^4 in NMRbox.^5 Spectra were processed by using in-house automated Python scripts in NMRPipe,^4 and chemical shifts perturbation were analyzed using SPARKY.^6 Total ^1H/^15N chemical shift perturbations and equilibrium dissociation constants (Kd) were calculated as reported.^2

[23] = biological target: T1, PBRM1-BD2; conditions: read-out: Kd PBRM1-BD2; ITC; NB = did not bind (heat below 0.1 μcal per second)
Description: (§3) Binding affinities of inhibitors towards PBRM1-BD2, PBRM1-BD5, SMARCA2, SMARCA4, and ASH1L were determined using a VP-ITC instrument (MicroCal). […] Protein concentrations were determined via the method of Bradford.^1 The buffer used for all ITC experiments consisted of 50 mM HEPES (pH 7.5 at 20° C.), 500 mM NaCl, 5% v/v glycerol, and 1% v/v DMSO; except for experiments involving PBRM1-BD2 whose buffer consisted of 100 mM Na2PO4 (pH 7.5 at 20° C.), 100 mM NaCl, 5% v/v glycerol, and 1% v/v DMSO. Kd values were determined by least-squares fitting to the raw data using Origin (OriginLab).

[24] = biological target: T2, PBRM1-BD5; conditions: read-out: Kd PBRM1-BD5; ITC; NB = did not bind
Description: as §3

[25] = biological target: T1, PBRM1-BD2; assay: AlphaScreen competition assay, His6-tagged PBRM1-BD2 and biotinylated H3K14ac peptide; assay type: binding; conditions: 0.2 μM His6-PBRM1-BD2, 0.1 μM biotinylated H3K14ac peptide
[26] = tested on: PC3 cells; assay: Cell viability assay (CellTiter-Glo); assay type: cell-based, human; conditions: 10, 1 and 0.1 μM
Description: (§2) Cell Viability Assays. Cells were seeded in a 96-well plate and incubated for 12-24 h prior to initial treatment. The number of cells per well was chosen empirically based on cell growth rates (LNCaP-5,000 cells/well, PC3 and RWPE-1-3,000 cells per well, HEK293T-1,000 cells/well). Cells were treated with either DMSO control or serial dilutions of inhibitors and media with compound was refreshed every 48 h.

[27] = Solubility at concentrations tested in the AlphaScreen assay
Description: AlphaScreen. […] All reagents were diluted in Epigenetic Buffer (5×), 2 μM TCEP, and 0.5% v/v Tween-20. The assay used a final volume of 40 μL. Stock solutions of inhibitors in DMSO were made at eight different concentrations (100 mM, 10 mM, 1 mM, 300 μM, 100 μM, 30 μM, 10 μM, 3 μM). 0.4 μL of inhibitor DMSO stocks were further diluted to 10 μL in the buffer. […] The mixture (40 μL) was further incubated for 1 h in a dark room and the luminescence was read on a BioTek Cytation5 Imaging Reader using an AlphaScreen detection filter cube. Data was plotted in GraphPad Prism using non-linear regression dose-response three variable slopes.

[28] = tested on: RWPE-1 cells; assay: Cell viability assay (CellTiter-Glo); assay type: cell-based, human; conditions: 10, 1 and 0.1 μM
Description: as §2

[29] = read-out: PBRM1-BD2 ΔTm, DSF, 10 μM protein, 100 μM inhibitor, vs apoprotein

T1 sequence (Q86U86 177-287): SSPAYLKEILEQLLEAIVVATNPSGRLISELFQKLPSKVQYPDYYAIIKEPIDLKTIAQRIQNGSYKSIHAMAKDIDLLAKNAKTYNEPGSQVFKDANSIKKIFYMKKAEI

CN(C)/C=C1\CCn2c1nc(=O)c1c(Cl)cccc12 [Compound 2, (E)-6-Chloro-3-((dimethylamino)methylene)-2,3-dihydropyrrolo[1,2-a]quinazolin-5(1H)-one, reference compound]
ΔTm at 100 µM [1, 29]: 3.3 ± 0.4 °C
SMARCA2 ΔTm [2]: 2.2 °C
BRD4-BD1 ΔTm [3]: 0.1 °C
SMARCA4 ΔTm [4]: 2 °C
PBRM1-BD1 ΔTm [5]: −0.1 °C
BRD3-BD2 ΔTm [6]: 0.5 °C
TRIM33A ΔTm [7]: −0.9 °C
PCAF ΔTm [8]: −0.2 °C
ASH1L ΔTm [9]: −0.7 °C
CREBBP ΔTm [10]: 0.1 °C
PBRM1-BD4 ΔTm [11]: 0.3 °C
p300 ΔTm [12]: −0.6 °C
PBRM1-BD3 ΔTm [13]: 2.6 °C
CECR2 ΔTm [14]: 2.0 °C
BRD7 ΔTm [15]: 1.2 °C
BRD2-BD2 ΔTm [16]: −0.2 °C
PBRM1-BD6 ΔTm [17]: −1.4 °C
BRD3-BD1 ΔTm [18]: 0.1 °C
BRDT-BD1 ΔTm [19]: −0.1 °C
BRD4-BD2 ΔTm [20]: −0.6 °C
PBRM1-BD5 ΔTm [21]: 7.7 °C

O=C1NC(c2c(F)cccc2Cl)Nc2ccccc21 (stereo not drawn) [Compound 5, 2-(2-Chloro-6-fluorophenyl)-2,3-dihydroquinazolin-4(1H)-one]
ΔTm at 100 µM [1, 29]: 1 ± 0.2 °C
Kd [22]: 50 µM
Kd ([22]; NMR titration, chemical shift perturbations vs fragment concentration, read-out: Kd): 45.3 ± 8.1 µM
Kd [23]: 18.4 µM
Kd [24]: 179 µM
IC50 [25]: 4.2 ± 1.3 µM

NC(=S)c1ccc(F)cc1 [Compound 6h]
Kd ([22]; read-out: Kd): > 2000 µM

COc1cccc(OCC(F)(F)F)c1C#N [Compound 6i]
Kd ([22]; read-out: Kd): > 2000 µM

N#Cc1ncccc1N1CCCCC1 [Compound 6j]
Kd ([22]; read-out: Kd): > 2000 µM

CCC(/C=C1\CCn2c1nc(=O)c1c(Cl)cccc12)CC [Compound 7, (E)-6-Chloro-3-(2-ethylbutylidene)-2,3-dihydropyrrolo[1,2-a]quinazolin-5(1H)-one, reference compound]
PBRM1-BD2 ΔTm [1]: > 7.5 °C
ΔTm at 100 µM [1, 29]: 7.7 °C
SMARCA2 ΔTm [2]: 3.0 °C
BRD4-BD1 ΔTm [3]: −0.2 °C
SMARCA4 ΔTm [4]: 3.1 °C
PBRM1-BD1 ΔTm [5]: −0.9 °C
BRD3-BD2 ΔTm [6]: 0.4 °C
TRIM33A ΔTm [7]: 0.3 °C
PCAF ΔTm [8]: 0.4 °C
CREBBP ΔTm [10]: −0.7 °C
PBRM1-BD4 ΔTm [11]: 3.9 °C
p300 ΔTm [12]: −0.5 °C
PBRM1-BD3 ΔTm [13]: 2.8 °C
CECR2 ΔTm [14]: −0.9 °C
BRD7 ΔTm [15]: 0.4 °C
BRD2-BD2 ΔTm [16]: 0.6 °C
PBRM1-BD6 ΔTm [17]: −1.5 °C
BRD3-BD1 ΔTm [18]: −0.3 °C
BRDT-BD1 ΔTm [19]: −0.8 °C
BRD4-BD2 ΔTm [20]: −1.1 °C
growth inhibition of PC3 cells [26]: more significant inhibition of PBRM1-independent prostate cancer cell line PC3
PBRM1-BD5 ΔTm [21]: 11.0 °C

CCC(/C=C1\CCn2c1nc(=O)c1ccccc12)CC [Compound 8, (E)-3-(2-Ethylbutylidene)-2,3-dihydropyrrolo[1,2-a]quinazolin-5(1H)-one, reference compound]
ASH1L ΔTm [9]: did not show binding

O=C1NC(c2c(F)cccc2Cl)Nc2cccc(Cl)c21 (stereo not drawn) [Compound 11, 5-Chloro-2-(2-chloro-6-fluorophenyl)-2,3-dihydroquinazolin-4(1H)-one]
ΔTm at 100 µM [1, 29]: 4.4 ± 0.4 °C

Cc1cc(C)c(C2NC(=O)c3c(Cl)cccc3N2)c(C)c1 (stereo not drawn) [Compound 22, 5-Chloro-2-(2,4,6-trimethylphenyl)-2,3-dihydroquinazolin-4(1H)-one]
solubility in the AlphaScreen assay [27]: solubility issues

Cc1cccc(C)c1C1NC(=O)c2c(Cl)cccc2N1 (stereo not drawn) [Compound 26, 5-Chloro-2-(2,6-dimethylphenyl)-2,3-dihydroquinazolin-4(1H)-one]
SMARCA2 ΔTm [2]: 0.5 °C
BRD4-BD1 ΔTm [3]: 0 °C
BRD3-BD2 ΔTm [6]: 0.3 °C
TRIM33A ΔTm [7]: 0.5 °C
PCAF ΔTm [8]: 0.6 °C
ASH1L ΔTm [9]: −0.8 °C
CREBBP ΔTm [10]: 0.2 °C
p300 ΔTm [12]: 0.2 °C
CECR2 ΔTm [14]: 1.3 °C
BRD7 ΔTm [15]: 0.1 °C
BRD2-BD2 ΔTm [16]: 0.5 °C
BRD3-BD1 ΔTm [18]: 0.0 °C
BRDT-BD1 ΔTm [19]: −0.6 °C
BRD4-BD2 ΔTm [20]: −4.4 °C

COc1cccc2c1C(=O)NC(c1ccccc1C)N2 (stereo not drawn) [Compound 31, 5-Methoxy-2-(2-methylphenyl)-2,3-dihydroquinazolin-4(1H)-one]
ΔTm at 100 µM [1, 29]: 0 °C
IC50 [25]: > 70 µM

Cc1cccc(C2NC(=O)c3c(Br)cccc3N2)c1 (stereo not drawn) [Compound 34, 5-Bromo-2-(3-methylphenyl)-2,3-dihydroquinazolin-4(1H)-one]
PBRM1-BD2 ΔTm [1]: 6.4 °C and 6.4 ± 0.2 °C
ΔTm at 100 µM [1, 29]: > 6.2 °C
SMARCA2 ΔTm [2]: 0.3 °C
BRD4-BD1 ΔTm [3]: 0.3 °C
SMARCA4 ΔTm [4]: −0.2 °C
PBRM1-BD1 ΔTm [5]: 1.4 °C
BRD3-BD2 ΔTm [6]: 0.5 °C
TRIM33A ΔTm [7]: 0.1 °C
PCAF ΔTm [8]: 0.6 °C
ASH1L ΔTm [9]: −0.4 °C
CREBBP ΔTm [10]: −0.2 °C
PBRM1-BD4 ΔTm [11]: 0.2 °C
p300 ΔTm [12]: −0.1 °C
PBRM1-BD3 ΔTm [13]: 0.6 °C
CECR2 ΔTm [14]: −0.6 °C
BRD7 ΔTm [15]: −0.4 °C
BRD2-BD2 ΔTm [16]: 0.5 °C
PBRM1-BD6 ΔTm [17]: −2.4 °C
BRD3-BD1 ΔTm [18]: 0.4 °C
BRDT-BD1 ΔTm [19]: −0.4 °C
BRD4-BD2 ΔTm [20]: −1.1 °C
growth inhibition of RWPE1 cells [28]: do not inhibit the growth of PC3 and RWPE1 at tested concentrations
growth inhibition of PC3 cells [26]: do not inhibit the growth of PC3 and RWPE1 at tested concentrations
PBRM1-BD5 ΔTm [21]: ~1.5 °C

O=C(O)c1ccccc1Nc1cc(Cl)ccc1C(=O)O [Compound 37, 2-((2-Carboxyphenyl)amino)-4-chlorobenzoic acid]
ΔTm at 100 µM ([1]; read-out: PBRM1-BD2 ΔTm): 0.3 ± 0.02 °C
IC50 [25]: > 250 µM

O=C(O)c1ccc(Cl)c2c(=O)c3ccccc3[nH]c12 [Compound 38, 1-Chloro-9-oxo-9,10-dihydroacridine-4-carboxylic acid]
ΔTm at 100 µM [1, 29]: 0 °C
IC50 [25]: > 250 µM

— patent US20240190828A1, “Small Molecule Inhibitors of PBRM1-BD2” (The Medical College of Wisconsin, Inc., priority 2021, published 2024)
